Assay results published in ChEMBL document CHEMBL5247592, “Discovery of novel VEGFR-2-PROTAC degraders based on the localization of lysine residues via recruiting VHL for the treatment of gastric cancer” (Eur J Med Chem, 2022).
Calls of active or inactive are those of the source. No cut-off for these calls is given here. Residues, ends and D or L forms follow the SMILES beside them. *: point of attachment. Cbz = O=C(OCc1ccccc1)*

Columns and labels:
[1] = biological target: T1, von Hippel-Lindau disease tumor suppressor/Vascular endothelial growth factor receptor 2 (Homo sapiens, UniProt P35968+P40337); assay: PROTAC activity at VHL/VEGFR2 in human HGC-27 cells assessed as induction of VEGRF2 protein degradation at 10 uM incubated for 2 hrs by Western blot analysis; type: cell-based
Target sequence in this assay (P35968 20-1356 limits assumed): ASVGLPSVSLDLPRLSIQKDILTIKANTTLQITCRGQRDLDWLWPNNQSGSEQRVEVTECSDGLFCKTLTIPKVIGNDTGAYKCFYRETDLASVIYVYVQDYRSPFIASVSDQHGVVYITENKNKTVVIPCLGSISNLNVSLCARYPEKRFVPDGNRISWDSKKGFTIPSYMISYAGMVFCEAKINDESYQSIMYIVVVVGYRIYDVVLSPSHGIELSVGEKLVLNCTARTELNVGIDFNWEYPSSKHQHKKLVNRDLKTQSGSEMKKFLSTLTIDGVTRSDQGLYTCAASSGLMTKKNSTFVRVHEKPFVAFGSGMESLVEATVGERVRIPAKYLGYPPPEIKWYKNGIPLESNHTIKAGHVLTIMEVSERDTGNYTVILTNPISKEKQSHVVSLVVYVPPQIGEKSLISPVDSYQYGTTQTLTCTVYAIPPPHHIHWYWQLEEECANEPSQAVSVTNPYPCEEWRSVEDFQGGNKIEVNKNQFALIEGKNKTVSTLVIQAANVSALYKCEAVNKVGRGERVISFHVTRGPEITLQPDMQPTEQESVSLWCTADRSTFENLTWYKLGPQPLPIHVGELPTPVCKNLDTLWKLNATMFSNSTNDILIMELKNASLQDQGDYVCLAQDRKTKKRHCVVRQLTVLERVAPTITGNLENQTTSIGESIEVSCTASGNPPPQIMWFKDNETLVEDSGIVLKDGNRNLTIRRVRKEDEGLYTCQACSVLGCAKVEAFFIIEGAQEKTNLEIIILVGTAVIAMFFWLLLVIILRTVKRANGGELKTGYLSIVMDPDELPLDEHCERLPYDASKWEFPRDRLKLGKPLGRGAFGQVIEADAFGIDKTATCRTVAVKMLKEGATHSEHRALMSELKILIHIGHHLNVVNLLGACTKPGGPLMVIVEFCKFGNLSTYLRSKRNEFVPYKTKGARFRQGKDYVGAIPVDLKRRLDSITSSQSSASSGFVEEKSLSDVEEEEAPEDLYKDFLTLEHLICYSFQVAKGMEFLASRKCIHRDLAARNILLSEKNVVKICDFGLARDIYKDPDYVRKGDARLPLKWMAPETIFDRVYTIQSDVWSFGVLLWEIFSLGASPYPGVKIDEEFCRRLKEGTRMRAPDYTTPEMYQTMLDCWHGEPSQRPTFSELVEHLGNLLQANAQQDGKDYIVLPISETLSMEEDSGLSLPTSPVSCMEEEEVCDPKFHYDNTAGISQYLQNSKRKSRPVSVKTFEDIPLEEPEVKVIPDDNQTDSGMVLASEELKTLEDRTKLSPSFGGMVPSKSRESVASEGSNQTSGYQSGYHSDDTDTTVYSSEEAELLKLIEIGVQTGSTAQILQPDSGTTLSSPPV
Target sequence in this assay (P40337 whole entry partner): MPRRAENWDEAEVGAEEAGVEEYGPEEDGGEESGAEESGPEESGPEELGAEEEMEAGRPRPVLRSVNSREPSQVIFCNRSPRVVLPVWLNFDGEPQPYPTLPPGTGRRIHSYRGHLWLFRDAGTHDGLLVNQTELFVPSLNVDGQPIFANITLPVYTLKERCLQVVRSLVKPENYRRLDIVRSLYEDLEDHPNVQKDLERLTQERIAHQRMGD

[2] = Cytotoxicity against HEK293T cells assessed as inhibition of cell growth incubated for 72 hrs by MTT assay; type: toxicity, cell-based, HEK-293T; conditions: human
[3] = biological target: T1, von Hippel-Lindau disease tumor suppressor/Vascular endothelial growth factor receptor 2; assay: PROTAC activity at VHL/VEGFR2 in human HGC-27 cells assessed as reduction in VEGFR2 protein level incubated for 24 hrs by Western blot analysis; type: cell-based
Target sequence in this assay (P35968 whole entry): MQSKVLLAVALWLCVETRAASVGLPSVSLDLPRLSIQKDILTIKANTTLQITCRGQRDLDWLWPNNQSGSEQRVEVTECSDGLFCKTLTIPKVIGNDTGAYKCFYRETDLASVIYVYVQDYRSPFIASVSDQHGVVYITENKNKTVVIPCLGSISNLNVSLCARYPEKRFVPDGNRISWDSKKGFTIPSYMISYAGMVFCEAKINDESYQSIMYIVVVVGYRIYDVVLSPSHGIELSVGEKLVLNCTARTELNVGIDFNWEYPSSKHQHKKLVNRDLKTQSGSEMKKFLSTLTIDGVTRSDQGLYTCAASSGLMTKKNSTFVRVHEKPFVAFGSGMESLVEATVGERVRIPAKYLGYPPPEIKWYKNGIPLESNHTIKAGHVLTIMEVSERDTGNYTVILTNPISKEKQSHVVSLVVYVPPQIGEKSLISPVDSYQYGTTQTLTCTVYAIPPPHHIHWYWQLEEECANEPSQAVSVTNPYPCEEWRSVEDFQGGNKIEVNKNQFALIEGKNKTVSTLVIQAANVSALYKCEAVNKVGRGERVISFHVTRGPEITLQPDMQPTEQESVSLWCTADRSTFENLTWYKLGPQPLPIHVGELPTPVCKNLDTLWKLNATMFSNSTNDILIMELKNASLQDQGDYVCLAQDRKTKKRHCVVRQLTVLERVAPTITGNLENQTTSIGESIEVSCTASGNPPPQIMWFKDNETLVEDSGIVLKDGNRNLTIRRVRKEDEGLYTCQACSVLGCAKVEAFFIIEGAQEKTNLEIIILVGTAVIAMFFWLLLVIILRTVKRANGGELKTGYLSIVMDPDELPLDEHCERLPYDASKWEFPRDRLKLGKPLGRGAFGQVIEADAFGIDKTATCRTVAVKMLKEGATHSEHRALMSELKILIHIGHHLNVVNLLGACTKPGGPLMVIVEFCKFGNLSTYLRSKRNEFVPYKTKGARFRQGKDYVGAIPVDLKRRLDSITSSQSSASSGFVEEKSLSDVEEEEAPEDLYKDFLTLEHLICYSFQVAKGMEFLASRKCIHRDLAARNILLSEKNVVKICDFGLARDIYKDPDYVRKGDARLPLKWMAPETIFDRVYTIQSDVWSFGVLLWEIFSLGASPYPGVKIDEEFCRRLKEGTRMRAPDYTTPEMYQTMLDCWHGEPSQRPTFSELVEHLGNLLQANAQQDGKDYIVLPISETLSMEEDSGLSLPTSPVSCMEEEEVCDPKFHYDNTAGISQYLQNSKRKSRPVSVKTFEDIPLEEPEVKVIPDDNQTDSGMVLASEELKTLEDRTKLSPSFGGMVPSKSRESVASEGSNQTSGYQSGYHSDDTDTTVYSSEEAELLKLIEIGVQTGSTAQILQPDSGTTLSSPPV
Target sequence in this assay (P40337 whole entry): as the sequence (P40337 whole entry partner) above

[4] = system: HGC-27; assay: Antiproliferative activity against human HGC-27 cells assessed as inhibition of cell growth incubated for 72 hrs by MTT assay; type: functional, cell-based; conditions: HGC-27, 72 h
[5] = Cytotoxicity against human GES1 cells assessed as inhibition of cell growth incubated for 72 hrs by MTT assay; type: toxicity, cell-based
[6] = Cytotoxicity against HUVEC cells assessed as inhibition of cell growth incubated for 72 hrs by MTT assay; type: toxicity, cell-based; conditions: human
[7] = biological target: T1, von Hippel-Lindau disease tumor suppressor/Vascular endothelial growth factor receptor 2; assay: PROTAC activity at VHL/VEGFR2 in human HGC-27 cells assessed as reduction in VEGFR2 protein level by measuring maximal efficacy at 3.33 uM incubated for 24 hrs by Western blot analysis relative to control; type: cell-based
Target sequence in this assay (P35968 20-1356 limits assumed): as the sequence (P35968 20-1356 limits assumed) above
Target sequence in this assay (P40337 whole entry partner): as the sequence (P40337 whole entry partner) above

[8] = biological target: T1, von Hippel-Lindau disease tumor suppressor/Vascular endothelial growth factor receptor 2; assay: PROTAC activity at VHL/VEGFR2 in human HGC-27 cells assessed as reduction in VEGFR2 protein level by measuring maximal efficacy incubated for 24 hrs by Western blot analysis relative to control; type: cell-based
Target sequence in this assay (P35968 20-1356 limits assumed): as the sequence (P35968 20-1356 limits assumed) above
Target sequence in this assay (P40337 whole entry partner): as the sequence (P40337 whole entry partner) above

[9] = biological target: Vascular endothelial growth factor receptor 2 (Homo sapiens, UniProt P35968); assay: Inhibition of VEGFR2 (unknown origin) at 1 uM by caliper mobility shift assay relative to control
Chain of Vascular endothelial growth factor receptor 2 (P35968 whole entry): as the sequence (P35968 whole entry) above

| Compound | Activity [1] | IC50 at 72 h [2] [µM] | EC50 [3] [µM] | IC50 [4] [µM] | IC50 at 72 h [5] [µM] | IC50 at 72 h [6] [µM] | Emax [7] [%] | Emax [8] [%] | inhibition [9] [%] |
| --- | --- | --- | --- | --- | --- | --- | --- | --- | --- |
| CC(C)C[C@@H](C=O)NC(=O)[C@H](CC(C)C)NC(=O)[C@H](CC(C)C)NC(=O)OCc1ccccc1 (Cbz-Leu-Leu-Leu-aldehyde) | inactive |  |  |  |  |  |  |  |  |
| Cc1ccc(NC(=O)Cn2cc(-c3ccc4c(NC(=O)c5ccc(NC(=O)CCCCCC(=O)N[C@H](C(=O)N6C[C@H](O)C[C@H]6C(=O)NCc6ccc(-c7scnc7C)cc6)C(C)(C)C)cc5)n[nH]c4c3)cn2)cc1C(F)(F)F |  | > 100 | > 3.33 | 7.26 | 31.3 | > 50 |  |  |  |
| Cc1ccc(NC(=O)Cn2cc(-c3ccc4c(NC(=O)c5ccc(N6CCN(C(=O)NCCCCCCCCC(=O)N[C@H](C(=O)N7C[C@H](O)C[C@H]7C(=O)NCc7ccc(-c8scnc8C)cc7)C(C)(C)C)CC6)cc5)n[nH]c4c3)cn2)cc1C(F)(F)F |  | > 100 |  | > 50 | > 100 | > 100 |  |  |  |
| Cc1ccc(NC(=O)Cn2cc(-c3ccc4c(NC(=O)c5ccc(N)cc5)nn(C(=O)CCCCCCCCC(=O)N[C@H](C(=O)N5C[C@H](O)C[C@H]5C(=O)NCc5ccc(-c6scnc6C)cc5)C(C)(C)C)c4c3)cn2)cc1C(F)(F)F |  | 44.9 | > 3.33 | 12.1 | 3.36 | 5.5 |  |  |  |
| Cc1ccc(NC(=O)Cn2cc(-c3ccc4c(NC(=O)c5ccc(NC(=O)CCCCCCCCCCC(=O)N[C@H](C(=O)N6C[C@H](O)C[C@H]6C(=O)NCc6ccc(-c7scnc7C)cc6)C(C)(C)C)cc5)n[nH]c4c3)cn2)cc1C(F)(F)F |  | 9.45 | 0.89 | 5.13 | 31.8 | 17.6 | 42.9 |  |  |
| Cc1ccc(NC(=O)Cn2cc(-c3ccc4c(NC(=O)c5ccc(NC(=O)CCC(=O)N[C@H](C(=O)N6C[C@H](O)C[C@H]6C(=O)NCc6ccc(-c7scnc7C)cc6)C(C)(C)C)cc5)n[nH]c4c3)cn2)cc1C(F)(F)F |  | 48.2 |  | > 50 | 47.4 | 28.2 |  |  |  |
| Cc1ccc(NC(=O)Cn2cc(-c3ccc4c(NC(=O)c5ccc(NC(=O)CCCCC(=O)N6CCN(CCCCC(=O)N[C@H](C(=O)N7C[C@H](O)C[C@H]7C(=O)NCc7ccc(-c8scnc8C)cc7)C(C)(C)C)CC6)cc5)n[nH]c4c3)cn2)cc1C(F)(F)F |  | 38.7 | 0.64 | 23.9 | 23.1 | 9.36 |  | 38.5 |  |
| Cc1ccc(NC(=O)Cn2cc(-c3ccc4c(NC(=O)c5ccc(N6CCN(C(=O)NCCCCC(=O)N[C@H](C(=O)N7C[C@H](O)C[C@H]7C(=O)NCc7ccc(-c8scnc8C)cc7)C(C)(C)C)CC6)cc5)n[nH]c4c3)cn2)cc1C(F)(F)F |  | > 100 | > 3.33 | > 50 | > 100 | > 100 |  | 17.3 |  |
| Cc1ccc(NC(=O)Cn2cc(-c3ccc4c(NC(=O)c5ccc(NC(=O)CCCCCCCC(=O)N[C@H](C(=O)N6C[C@H](O)C[C@H]6C(=O)NCc6ccc(-c7scnc7C)cc6)C(C)(C)C)cc5)n[nH]c4c3)cn2)cc1C(F)(F)F |  | > 100 | > 3.33 | 10.7 | 10.9 | > 50 |  | 13.5 |  |
| Cc1ccc(NC(=O)Cn2cc(-c3ccc4c(NC(=O)c5ccc(N6CCN(C(=O)NCCCCCCCCCCC(=O)N[C@H](C(=O)N7C[C@H](O)C[C@H]7C(=O)NCc7ccc(-c8scnc8C)cc7)C(C)(C)C)CC6)cc5)n[nH]c4c3)cn2)cc1C(F)(F)F |  | > 100 |  | > 50 | > 100 | > 100 |  |  |  |
| Cc1ccc(NC(=O)Cn2cc(-c3ccc4c(NC(=O)c5ccc(NC(=O)CCCCCCC(=O)N[C@H](C(=O)N6C[C@H](O)C[C@H]6C(=O)NCc6ccc(-c7scnc7C)cc6)C(C)(C)C)cc5)n[nH]c4c3)cn2)cc1C(F)(F)F |  | 17.9 | 0.28 | 4.36 | 14.3 | 4.13 | 48 |  |  |
| Cc1ccc(NC(=O)Cn2cc(-c3ccc4c(NC(=O)c5ccc(NC(=O)CCCCC(=O)N6CCN(CCCCCCCC(=O)N[C@H](C(=O)N7C[C@H](O)C[C@H]7C(=O)NCc7ccc(-c8scnc8C)cc7)C(C)(C)C)CC6)cc5)n[nH]c4c3)cn2)cc1C(F)(F)F |  | 31.9 |  | 44.7 | 47.9 | 25 |  |  |  |
| Cc1ccc(NC(=O)Cn2cc(-c3ccc4c(NC(=O)c5ccc(NC(=O)CCCCC(=O)N6CCN(CCCCCCC(=O)N[C@H](C(=O)N7C[C@H](O)C[C@H]7C(=O)NCc7ccc(-c8scnc8C)cc7)C(C)(C)C)CC6)cc5)n[nH]c4c3)cn2)cc1C(F)(F)F |  | 24.1 | > 3.33 | 20.4 | 51.4 | 29.6 |  | 31 |  |
| Cc1ccc(NC(=O)Cn2cc(-c3ccc4c(NC(=O)c5ccc(N6CCN(CCCCCCCC(=O)N[C@H](C(=O)N7C[C@H](O)C[C@H]7C(=O)NCc7ccc(-c8scnc8C)cc7)C(C)(C)C)CC6)cc5)n[nH]c4c3)cn2)cc1C(F)(F)F |  | > 100 | > 3.33 | 22.6 | > 100 | > 50 |  |  |  |
| Cc1ccc(NC(=O)Cn2cc(-c3ccc4c(NC(=O)c5ccc(NC(=O)CCCCCCCCC(=O)N[C@H](C(=O)N6C[C@@H](O)C[C@H]6C(=O)NCc6ccc(-c7scnc7C)cc6)C(C)(C)C)cc5)n[nH]c4c3)cn2)cc1C(F)(F)F |  | > 100 | > 3.33 | 2.09 | 5.13 | 12.2 |  |  |  |
| Cc1ccc(NC(=O)Cn2cc(-c3ccc4c(NC(=O)c5ccc(NC(=O)CCCCCCCCCC(=O)N[C@H](C(=O)N6C[C@H](O)C[C@H]6C(=O)NCc6ccc(-c7scnc7C)cc6)C(C)(C)C)cc5)n[nH]c4c3)cn2)cc1C(F)(F)F |  | > 100 |  | 55.6 | 12 | > 50 |  |  |  |
| Cc1ccc(NC(=O)Cn2cc(-c3ccc4c(NC(=O)CCCCCCCCCCC(=O)N[C@@H](C(=O)N5C[C@H](O)C[C@H]5C(=O)NCc5ccc(-c6scnc6C)cc5)C(C)(C)C)n[nH]c4c3)cn2)cc1C(F)(F)F |  | > 100 |  | > 50 | > 50 | > 50 |  |  | 60.4 |
| Cc1ccc(NC(=O)Cn2cc(-c3ccc4c(NC(=O)c5ccc(N6CCN(CCCCC(=O)N[C@H](C(=O)N7C[C@H](O)C[C@H]7C(=O)NCc7ccc(-c8scnc8C)cc7)C(C)(C)C)CC6)cc5)n[nH]c4c3)cn2)cc1C(F)(F)F |  | > 100 | > 3.33 | > 50 | 60.3 | > 50 |  | 8.7 |  |
| Cc1ccc(NC(=O)Cn2cc(-c3ccc4c(NC(=O)c5ccc(NC(=O)CCCCC(=O)N6CCN(CCCCCC(=O)N[C@H](C(=O)N7C[C@H](O)C[C@H]7C(=O)NCc7ccc(-c8scnc8C)cc7)C(C)(C)C)CC6)cc5)n[nH]c4c3)cn2)cc1C(F)(F)F |  | > 100 |  | 23.9 | 26.8 | > 50 |  |  |  |
| Cc1ccc(NC(=O)Cn2cc(-c3ccc4c(NC(=O)c5ccc(NC(=O)CCCCC(=O)N[C@H](C(=O)N6C[C@H](O)C[C@H]6C(=O)NCc6ccc(-c7scnc7C)cc6)C(C)(C)C)cc5)n[nH]c4c3)cn2)cc1C(F)(F)F |  | 46.8 | 0.33 | 10.1 | 46.4 | 13 | 62.6 |  |  |
| Cc1ccc(NC(=O)Cn2cc(-c3ccc4c(NC(=O)c5ccc(N6CCN(C(=O)NCCCCCCC(=O)N[C@H](C(=O)N7C[C@H](O)C[C@H]7C(=O)NCc7ccc(-c8scnc8C)cc7)C(C)(C)C)CC6)cc5)n[nH]c4c3)cn2)cc1C(F)(F)F |  | > 100 |  | > 50 | > 100 | > 100 |  |  |  |
| Cc1ccc(NC(=O)Cn2cc(-c3ccc4c(NC(=O)c5ccc(N6CCN(CCCCCC(=O)N[C@H](C(=O)N7C[C@H](O)C[C@H]7C(=O)NCc7ccc(-c8scnc8C)cc7)C(C)(C)C)CC6)cc5)n[nH]c4c3)cn2)cc1C(F)(F)F |  | 43.8 |  | > 50 | > 100 | > 50 |  |  |  |
| Cc1ccc(NC(=O)Cn2cc(-c3ccc4c(NC(=O)c5ccc(NC(=O)CCCCC(=O)N6CCN(CCCC(=O)N[C@H](C(=O)N7C[C@H](O)C[C@H]7C(=O)NCc7ccc(-c8scnc8C)cc7)C(C)(C)C)CC6)cc5)n[nH]c4c3)cn2)cc1C(F)(F)F |  | 38.2 |  | 30.9 | 25.4 | 10.9 |  |  |  |
| CNC(=O)c1cc(Oc2ccc(NC(=O)Nc3ccc(Cl)c(C(F)(F)F)c3)cc2)ccn1 [SORAFENIB] |  | 6.38 |  | 5.15 | 9.47 | 9.66 |  |  |  |
| Cc1ccc(NC(=O)Cn2cc(-c3ccc4c(NC(=O)c5ccc(N6CCN(CCCCCCC(=O)N[C@H](C(=O)N7C[C@H](O)C[C@H]7C(=O)NCc7ccc(-c8scnc8C)cc7)C(C)(C)C)CC6)cc5)n[nH]c4c3)cn2)cc1C(F)(F)F |  | 38.6 | > 3.33 | 5.5 | 22.4 | > 50 |  | 38.2 |  |
| Cc1ccc(NC(=O)Cn2cc(-c3ccc4c(NC(=O)c5ccc(N)cc5)nn(C(=O)CCCCCCCCCCC(=O)N[C@H](C(=O)N5C[C@H](O)C[C@H]5C(=O)NCc5ccc(-c6scnc6C)cc5)C(C)(C)C)c4c3)cn2)cc1C(F)(F)F |  | 25.9 | 0.32 | 1.44 | 49.7 | 34.6 |  | 81.7 | 96.3 |
